Reference: patent US8287934B2, “Use of diacetyl dimer as an aromatic and/or flavouring substance” (Symrise AG, priority 2006, dated 2012)

How the values were obtained:
[1] = Tasting in sweet/salty solution (flavour profile by testers); type: in vivo
Experimental: The actions found were evaluated with a scale of from 1 (action scarcely perceptible) to 9 (action highly perceptible).
The 5-acetyl-2,5-dimethyl-2-hydroxy-tetrahydrofuran-3-one from Example 1 (2 ppm diacetyl dimer of formula (I) in aqueous 5 wt. % sucrose or 0.5% sodium chloride solution) was investigated for its flavouring action by 9 testers.
The 2,5-diacetyl-3a,5,6,6a-tetrahydro-6a-hydroxy-2,3a,5-trimethylfuro[2,3-d]-1,3-dioxole from Example 1a (1 ppm diacetyl trimer of formula (II) in aqueous 5 wt. % sucrose or 0.5% sodium chloride solution) was investigated for its flavouring action by 9 testers.
The aromatic and/or flavouring composition containing diacetyl dimer of formula (I) and diacetyl trimer of formula (II) from example (1b) (1 ppm of the composition in aqueous 5 wt. % sucrose or 0.5% sodium chloride solution) was investigated for its flavouring action by 7 testers.
For comparison, a flavour profile of diacetyl (1 ppm in aq. 5% sucrose or 0.5% sodium chloride solution) was produced under otherwise identical conditions: fatty (oily) (5), cream (5), butter (7), milk (4), condensed milk (4), fruity (2), cheesy (2), sweet (4), vanillin (2), intensity (7), impact (7), fullness (7), adhesive (5), soft (6).

[2] = Stability on heating and in formulations; type: physicochemical; conditions: for decomposition when heated: heated at 60° C. to 100° C. for 10 minutes
[3] = 2 ppm in aqueous 5 wt. % sucrose or 0.5% sodium chloride solution, scale 1 to 9
[4] = 1 ppm in aqueous 5 wt. % sucrose or 0.5% sodium chloride solution, scale 1 (scarcely perceptible) to 9 (highly perceptible)
[5] = 1 ppm in aqueous 5 wt. % sucrose or 0.5% sodium chloride solution, scale 1 to 9
[6] = 1 ppm in aq. 5% sucrose or 0.5% sodium chloride solution, scale 1 to 9

| SMILES | decomposition when heated [2] | flavour profile: fatty (oily) [1, 4] | flavour profile: adhesive [1, 5] | flavour profile: butter [1, 5] | flavour profile: cream [1, 5] | flavour profile: fullness [1, 5] | flavour profile: impact [1, 5] | flavour profile: intensity [1, 5] | flavour profile: soft [1, 5] | flavour profile: sweet [1, 5] | flavour profile: vanillin [1, 5] | further results |
| --- | --- | --- | --- | --- | --- | --- | --- | --- | --- | --- | --- | --- |
| CC(=O)C1(C)CC(=O)C(C)(O)O1 (racemic) [diacetyl dimer of formula (I), 5-acetyl-2,5-dimethyl-2-hydroxy-tetrahydrofuran-3-one] | does not decompose | – | – | – | – | – | – | – | – | – | – | flavour profile: cream ([1]; 2 ppm in aqueous 5 wt. % sucrose or 0.5% sodium chloride solution, scale 1 (scarcely perceptible) to 9 (highly perceptible)): 5; flavour profile: butter [1, 3]: 5; flavour profile: caramel [1, 3]: 3; flavour profile: fullness [1, 3]: 6; flavour profile: intensity [1, 3]: 5; flavour profile: soft [1, 3]: 6; flavour profile: sweet [1, 3]: 5; flavour profile: toffee [1, 3]: 4; flavour profile: vanillin [1, 3]: 3; stability in formulations compared with diacetyl ([2]; nutrition, oral hygiene, luxury product or oral pharmaceutical formulations, in particular acidic or basic pH-value): significantly more stable than diacetyl |
| CC(=O)C1(C)CC2(O)OC(C)(C(C)=O)OC2(C)O1 (racemic) [diacetyl trimer of formula (II), 2,5-diacetyl-3a,5,6,6a-tetrahydro-6a-hydroxy-2,3a,5-trimethylfuro[2,3-d]-1,3-dioxole] | does not decompose | 7 | 8 | 8 | 6 | 7 | 7 | 6 | 6 | 6 | 3 | flavour profile: caramel [1, 5]: 4; flavour profile: fresh cheese/quark [1, 5]: 4; flavour profile: toffee [1, 5]: 6 |
| CC(=O)C(C)=O [diacetyl, 2,3-butanedione] | – | 5 | 5 | 7 | 5 | 7 | 7 | 7 | 6 | 4 | 2 | flavour profile: cheesy [1, 6]: 2; flavour profile: condensed milk [1, 6]: 4; flavour profile: fruity [1, 6]: 2; flavour profile: milk [1, 6]: 4 |
